Read-outs that look alike come from different tables or passages of the source.
Columns and labels:
[1] = tested on: PSMA+PC3-PIP and PSMA-PC3-flu flank xenografts; experiment: Biodistribution of [125I/211At]2 and 3 with and without co-injection of DCIBzL (Example 6); type: in vivo, athymic mice
Text: Final compounds were purified by HPLC.

[2] = tested on: PSMA+PC3-PIP and PSMA-PC3-flu flank xenografts
Method: Final compounds were purified by HPLC. […] Organs were harvested 1, 4, and 24 h post-injection (n=5 per time point).

[3] = 1-hour, Blocker VK-02-90 0.5 nmole
[4] = 1-hour, Blocker VK-02-90 1.0 nmole
[5] = 1-hour, Blocker VK-02-90 5.0 nmole
[6] = 1-hour, Blocker YC-I-27 0.5 nmole
[7] = 1-hour, Blocker YC-I-27 1.0 nmole
[8] = 1-hour, Blocker YC-I-27 5 nmole
[9] = 4-hr, Blocker VK-02-90 0.5 nmole
[10] = 4-hr, Blocker VK-02-90 1.0 nmole

With `O=C([O-])CN1CCN(CC(=O)[O-])CCN(CC(=O)NCCCCC(=O)N(CCCC[C@H](NC(=O)N[C@@H](CCC(=O)O)C(=O)O)C(=O)O)Cc2ccc([125I])cc2)CCN(CC(=O)[O-])CC1.[Lu+3]` [[^125I]VK-02-90-Lu] the “retention of radioactivity, lacrimal glands (LG)” value ([1]; 1h, no co-injection) was 4.1±1.3 % ID/g, the “retention of radioactivity, salivary glands (SG)” value ([1]; 1h, no co-injection) was 1.0±0.3 % ID/g and the “retention of radioactivity, kidneys (K)” value ([1]; 4 h, no co-injection) was 18.2±4.9 % ID/g. For the same molecule, the “retention of radioactivity, kidneys (K)” value ([1]; 24 h, no co-injection) was 3.3±1.1 % ID/g, the Stomach uptake ([1]; @ 1 h) was 1.8±0.2 % ID/g and the “retention, K” value ([1]; @1 h, co-injection of DCIBzL) was 4.2±1.3 % ID/g. The “retention, LG” value ([1]; @1 h, co-injection of DCIBzL) was 0.5±0.1 % ID/g, the “retention, SG” value ([1]; @1 h, co-injection of DCIBzL) was 3.2±0.7 % ID/g and the Stomach uptake ([1]; @ 4 h) was 0.8±0.5 % ID/g. The Stomach uptake ([1]; @ 24 h) was 0.1±0.04 % ID/g, the “Biodistribution, Blood” value ([2]; 1-hour, Blocker None) was 1.1 ± 0.1 % injected dose/g and the “Biodistribution, Flu tumor” value ([2]; 1-hour, Blocker None) was 1.0 ± 0.2 % injected dose/g. The “Biodistribution, Kidneys” value ([2]; 1-hour, Blocker None) was 129 ± 15 % injected dose/g, the “Biodistribution, Lacrimal glands” value ([2]; 1-hour, Blocker None) was 2.1 ± 0.9 % injected dose/g and the “Biodistribution, PIP tumor” value ([2]; 1-hour, Blocker None) was 26.0 ± 3.0 % injected dose/g. The “Biodistribution, Salivary glands” value ([2]; 1-hour, Blocker None) was 2.3 ± 0.5 % injected dose/g, the “Biodistribution, Spleen” value ([2]; 1-hour, Blocker None) was 4.3 ± 0.9 % injected dose/g and the “Biodistribution, Stomach” value ([2]; 1-hour, Blocker None) was 1.7 ± 0.3 % injected dose/g. For the same molecule, the “Biodistribution, Blood” value [2, 3] was 0.4 ± 0.1 % injected dose/g, the “Biodistribution, Flu tumor” value [2, 3] was 0.6 ± 0.3 % injected dose/g and the “Biodistribution, Kidneys” value [2, 3] was 9.9 ± 2.5 % injected dose/g. The “Biodistribution, Lacrimal glands” value [2, 3] was 0.4 ± 0.1 % injected dose/g, the “Biodistribution, PIP tumor” value [2, 3] was 36.7 ± 6.8 % injected dose/g and the “Biodistribution, Salivary glands” value [2, 3] was 0.2 ± 0.03 % injected dose/g. The “Biodistribution, Spleen” value [2, 3] was 1.1 ± 0.4 % injected dose/g, the “Biodistribution, Stomach” value [2, 3] was 0.2 ± 0.1 % injected dose/g and the “Biodistribution, Blood” value [2, 4] was 0.4 ± 0.1 % injected dose/g. The “Biodistribution, Flu tumor” value [2, 4] was 0.5 ± 0.1 % injected dose/g, the “Biodistribution, Kidneys” value [2, 4] was 6.5 ± 0.9 % injected dose/g and the “Biodistribution, Lacrimal glands” value [2, 4] was 0.4 ± 0.1 % injected dose/g. The “Biodistribution, PIP tumor” value [2, 4] was 35.1 ± 9.0 % injected dose/g, the “Biodistribution, Salivary glands” value [2, 4] was 0.2 ± 0.06 % injected dose/g and the “Biodistribution, Spleen” value [2, 4] was 1.1 ± 0.4 % injected dose/g. For the same molecule, the “Biodistribution, Stomach” value [2, 4] was 0.2 ± 0.04 % injected dose/g, the “Biodistribution, Blood” value [2, 5] was 0.5 ± 0.1 % injected dose/g and the “Biodistribution, Flu tumor” value [2, 5] was 0.9 ± 0.3 % injected dose/g. The “Biodistribution, Kidneys” value [2, 5] was 4.2 ± 0.5 % injected dose/g, the “Biodistribution, Lacrimal glands” value [2, 5] was 0.4 ± 0.03 % injected dose/g and the “Biodistribution, PIP tumor” value [2, 5] was 23.5 ± 4.3 % injected dose/g. The “Biodistribution, Salivary glands” value [2, 5] was 0.3 ± 0.1 % injected dose/g, the “Biodistribution, Spleen” value [2, 5] was 0.7 ± 0.2 % injected dose/g and the “Biodistribution, Stomach” value [2, 5] was 0.2 ± 0.06 % injected dose/g. For the same molecule, the “Biodistribution, Blood” value [2, 6] was 1.1 ± 0.1 % injected dose/g, the “Biodistribution, Flu tumor” value [2, 6] was 1.0 ± 0.3 % injected dose/g and the “Biodistribution, Kidneys” value [2, 6] was 4.2 ± 1.3 % injected dose/g. The “Biodistribution, Lacrimal glands” value [2, 6] was 0.5 ± 0.1 % injected dose/g, the “Biodistribution, PIP tumor” value [2, 6] was 41.8 ± 4.2 % injected dose/g and the “Biodistribution, Salivary glands” value [2, 6] was 3.2 ± 0.7 % injected dose/g. For the same molecule, the “Biodistribution, Spleen” value [2, 6] was 0.8 ± 0.2 % injected dose/g, the “Biodistribution, Stomach” value [2, 6] was 1.8 ± 0.2 % injected dose/g and the “Biodistribution, Blood” value [2, 7] was 1.0 ± 0.1 % injected dose/g. The “Biodistribution, Flu tumor” value [2, 7] was 0.8 ± 0.2 % injected dose/g, the “Biodistribution, Kidneys” value [2, 7] was 2.4 ± 0.8 % injected dose/g and the “Biodistribution, Lacrimal glands” value [2, 7] was 0.6 ± 0.05 % injected dose/g. For the same molecule, the “Biodistribution, PIP tumor” value [2, 7] was 29.1 ± 2.4 % injected dose/g, the “Biodistribution, Salivary glands” value [2, 7] was 2.9 ± 0.4 % injected dose/g and the “Biodistribution, Spleen” value [2, 7] was 0.6 ± 0.1 % injected dose/g. For the same molecule, the “Biodistribution, Stomach” value [2, 7] was 1.8 ± 0.3 % injected dose/g, the “Biodistribution, Blood” value [2, 8] was 1.1 ± 0.2 % injected dose/g and the “Biodistribution, Flu tumor” value [2, 8] was 0.8 ± 0.2 % injected dose/g. The “Biodistribution, Kidneys” value [2, 8] was 2.3 ± 0.7 % injected dose/g, the “Biodistribution, Lacrimal glands” value [2, 8] was 1.1 ± 0.6 % injected dose/g and the “Biodistribution, PIP tumor” value [2, 8] was 20.1 ± 2.8 % injected dose/g. The “Biodistribution, Salivary glands” value [2, 8] was 5.1 ± 1.7 % injected dose/g, the “Biodistribution, Spleen” value [2, 8] was 0.7 ± 0.1 % injected dose/g and the “Biodistribution, Stomach” value [2, 8] was 2.2 ± 0.7 % injected dose/g. The “Biodistribution, Blood” value ([2]; 4-hr, Blocker None) was 0.3 ± 0.2 % injected dose/g, the “Biodistribution, Flu tumor” value ([2]; 4-hr, Blocker None) was 0.25 ± 0.1 % injected dose/g and the “Biodistribution, Kidneys” value ([2]; 4-hr, Blocker None) was 9.5 ± 2.5 % injected dose/g. The “Biodistribution, Lacrimal glands” value ([2]; 4-hr, Blocker None) was 0.4 ± 0.2 % injected dose/g, the “Biodistribution, PIP tumor” value ([2]; 4-hr, Blocker None) was 27.4 ± 7.5 % injected dose/g and the “Biodistribution, Salivary glands” value ([2]; 4-hr, Blocker None) was 1.8 ± 0.2 % injected dose/g. For the same molecule, the “Biodistribution, Spleen” value ([2]; 4-hr, Blocker None) was 0.6 ± 0.2 % injected dose/g, the “Biodistribution, Stomach” value ([2]; 4-hr, Blocker None) was 0.8 ± 0.5 % injected dose/g and the “Biodistribution, Blood” value [2, 9] was 0.02 ± 0.01 % injected dose/g. The “Biodistribution, Flu tumor” value [2, 9] was 0.1 ± 0.02 % injected dose/g, the “Biodistribution, Kidneys” value [2, 9] was 2.1 ± 0.7 % injected dose/g and the “Biodistribution, Lacrimal glands” value [2, 9] was 0.1 ± 0.03 % injected dose/g. The “Biodistribution, PIP tumor” value [2, 9] was 24.8 ± 2.0 % injected dose/g, the “Biodistribution, Salivary glands” value [2, 9] was 0.08 ± 0.04 % injected dose/g and the “Biodistribution, Spleen” value [2, 9] was 0.2 ± 0.1 % injected dose/g. The “Biodistribution, Stomach” value [2, 9] was 0.06 ± 0.01 % injected dose/g, the “Biodistribution, Blood” value [2, 10] was 0.2 ± 0.01 % injected dose/g and the “Biodistribution, Flu tumor” value [2, 10] was 0.1 ± 0.03 % injected dose/g. For the same molecule, the “Biodistribution, Kidneys” value [2, 10] was 1.4 ± 0.4 % injected dose/g and the “Biodistribution, Lacrimal glands” value [2, 10] was 0.1 ± 0.05 % injected dose/g.

— US11813340B2, “PSMA targeted radiohalogenated urea-polyaminocarboxylates for cancer radiotherapy” (The Johns Hopkins University, priority 2018, dated 2023)
